Assay results: patent publication US20120220455A1, “Azolylmethyloxiranes, Their Use for Controlling Phytopathogenic Fungi and Compositions Comprising Them” (BASF SE, priority 2006, published 2012)

System: Alternaria solani
Experiment: Efficacy against early blight of tomato caused by Alternaria solani (Alteso P1), greenhouse
Type: in vivo
Conditions: Comparative Example 1, potted tomato plants, visual rating after 5 days
Protocol: The active compounds were prepared separately or jointly as a stock solution comprising 25 mg of active compound which was made up to 10 ml using a mixture of acetone and/or DMSO and the emulsifier Wettol EM 31 (wetting agent having emulsifying and dispersing action based on ethoxylated alkylphenols) in a volume ratio of solvent/emulsifier of 99:1. The mixture was then made up to 100 ml with water. This stock solution was diluted with the solvent/emulsifier/water mixture described to give the concentration of active compounds stated below. Leaves of potted tomato plants were sprayed to runoff point with an aqueous suspension having the active compound concentration stated below. The next day, the leaves were inoculated with an aqueous spore suspension of Alternaria solani in a 2% biomalt solution. The plants were then placed in a water vapor-saturated chamber at temperatures between 20 and 22° C. After 5 days, the disease on the untreated but infected control plants had developed to such an extent that the infection could be determined visually in %. […]

Row | Structure (SMILES) | Infection in % at 63 ppm for Alteso P1 [%]
1 | COc1ccc([C@@]2(Cn3cncn3)O[C@@H]2c2ccccc2Cl)c(F)c1 (racemic) [Compound 14.10] | 5
2 | COc1ccc(C2(Cn3cncn3)OC2c2ccccc2Cl)cc1 (centres unmarked) [As described in EP-A 0 196 038] | 90
